Measurements reported in patent US20260137706A1, “METHODS OF TREATING INFLAMMATORY DISEASES” (INTERLINE THERAPEUTICS, INC., priority 2023, published 2026).

Key:
[1] = target: T1, GST-RIPK2 fusion protein (human RIPK2, amino acids 1-310) (Homo sapiens, UniProt O43353); experiment: RIPK2 binding competition assay (TR-FRET, Tracer 199 displacement); conditions: 10 nM Tracer 199, 1 nM GST-RIPK2, read-out: RIPK2 IC50
T1 construct: made in house; host or cells: baculovirus infected Sf9 cells
Outline: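 GST-RIPK2 (human aa 1-310, Sf9-expressed; final 1 nM) with Tracer 199 (final 10 nM) and Tb-anti-GST (final 0.5 nM) in Tris pH 7.5 buffer, 45 min at 22 °C. TR-FRET 665/620 nm ratio after 337 nm excitation; normalized to no-inhibitor (0%) and no-protein (−100%), giving IC50.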

[2] = target: T2, binding of His-XIAP(BIR2)-avi fusion protein to GST-RIPK2 fusion protein (RIPK2/XIAP) (Homo sapiens, UniProt O43353); experiment: RIPK2-XIAP binding competition PPI assay (TR-FRET); conditions: RIPK2/XIAP binding competition PPI assay; for Emax: Amax, read-out: PPI Amax bin; for IC50: read-out: PPI IC50 bin
T2 construct: made in house; host or cells: baculovirus infected Sf9 cells
Outline: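 Compounds (in DMSO, 100-fold stock) incubated 120 min at 23 °C with 1 nM GST-RIPK2 (aa 1-310) and 25 nM His-XIAP(BIR2 aa 152-231)-avi, plus anti-His-XL665 and anti-GST-Tb, in pH 7.5 Tris buffer. Read-out: 665/520 nm emission ratio. Normalized to no-inhibitor (0%) and 50 nM GSK583 (−100%); Amax binned A–D.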

[3] = tested on: NF-κB pathway (SEAP) in THP1-Dual cells; experiment: THP-1 Dual cell SEAP assay (L18-MDP stimulated); assay type: cell-based; conditions: Homo sapiens, THP1-Dual, read-out: NF-κB THP1 IC50 bin
Outline: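 THP1-Dual cells (~25,000/well) were preincubated 30 min with serially diluted compounds, then stimulated with 10 ng/mL L18-MDP (final) for 20-24 h at 37 °C. Supernatant SEAP was read with QUANTI-Blue at OD 620-655 nm after 2 h. IC50 came from non-linear fits of % inhibition versus DMSO/L18-MDP controls after media-blank subtraction.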

T2 sequence (O43353 1-310 limits assumed): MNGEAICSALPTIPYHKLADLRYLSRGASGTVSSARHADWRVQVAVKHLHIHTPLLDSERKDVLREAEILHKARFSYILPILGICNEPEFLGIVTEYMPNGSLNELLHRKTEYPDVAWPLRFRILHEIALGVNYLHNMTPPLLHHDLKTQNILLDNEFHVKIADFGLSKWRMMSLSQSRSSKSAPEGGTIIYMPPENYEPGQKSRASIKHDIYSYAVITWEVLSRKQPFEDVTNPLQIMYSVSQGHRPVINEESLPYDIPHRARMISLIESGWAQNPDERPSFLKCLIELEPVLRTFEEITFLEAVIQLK
T1 sequence (O43353 1-310): as the sequence (O43353 1-310 limits assumed) above

Row | SMILES | IC50 [1] [nM] | Emax [2] [%] | IC50 [2] [nM] | IC50 [3] [nM]
1 | COc1cc2ncc(-c3cc(F)c(N)nc3F)n2cc1S(=O)(=O)C1(C)CCOCC1 [Example 72, 3,6-difluoro-5-(7-methoxy-6-((4-methyltetrahydro-2H-pyran-4-yl)sulfonyl)imidazo[1,2-a]pyridin-3-yl)pyridin-2-amine] | > 20 | > 80 | > 20 | > 1000
2 | COc1cn2ncc(-c3cc(F)c(N)nc3F)c2cc1C1(O)CCN(C)CC1 [Example 73, 4-(3-(6-amino-2,5-difluoropyridin-3-yl)-6-methoxypyrazolo[1,5-a]pyridin-5-yl)-1-methylpiperidin-4-ol] | 2.5 to 20 | > 80 | 2.5 to 20 | 250 to 1000
3 | COc1cc2ncc(-c3cc(F)c(N)nc3F)n2cc1C1(O)CCN(C)CC1 [Example 74, 4-(3-(6-amino-2,5-difluoropyridin-3-yl)-7-methoxyimidazo[1,2-a]pyridin-6-yl)-1-methylpiperidin-4-ol] | > 20 | > 80 | > 20 | > 1000
4 | COc1cc2ncc(-c3cc(F)c(N)nc3F)n2cc1C1(O)CCOCC1 [Example 75, 4-(3-(6-amino-2,5-difluoropyridin-3-yl)-7-methoxyimidazo[1,2-a]pyridin-6-yl)tetrahydro-2H-pyran-4-ol] | > 20 | > 80 | > 20 | > 1000
5 | COc1cc2ncc(-c3cc(F)c(N)nc3F)n2cc1C1(OC)CCOCC1 [Example 76, 3,6-difluoro-5-(7-methoxy-6-(4-methoxytetrahydro-2H-pyran-4-yl)imidazo[1,2-a]pyridin-3-yl)pyridin-2-amine] | > 20 | > 80 | > 20 | > 1000
6 | COc1cc2ncc(-c3cc(F)c(N)nc3F)n2cc1S(=O)(=O)c1ccnn1C [Example 77, 3,6-difluoro-5-(7-methoxy-6-((1-methyl-1H-pyrazol-5-yl)sulfonyl)imidazo[1,2-a]pyridin-3-yl)pyridin-2-amine] | > 20 | > 80 | > 20 | > 1000
7 | COc1cc2ncc(-c3cc(F)c(N)nc3F)n2cc1S(=O)(=O)c1cn[nH]c1 [Example 78, 5-(6-((1H-pyrazol-4-yl)sulfonyl)-7-methoxyimidazo[1,2-a]pyridin-3-yl)-3,6-difluoropyridin-2-amine] | 2.5 to 20 | > 80 | 2.5 to 20 | > 1000
8 | COc1cc2ncc(-c3cc(F)c(N)nc3F)n2cc1P1(=O)CCN(C)CC1 [Example 79, 4-(3-(6-amino-2,5-difluoropyridin-3-yl)-7-methoxyimidazo[1,2-a]pyridin-6-yl)-1-methyl-1,4-azaphosphinane 4-oxide] | > 20 | > 80 | > 20 | > 1000
9 | COc1ccn2ncc(-c3cc(N)cc(F)c3)c2n1 [Example 80, 3-fluoro-5-(5-methoxypyrazolo[1,5-a]pyrimidin-3-yl)aniline] | > 20 | < 30 | > 20 | > 1000
10 | CCCS(=O)(=O)Nc1cc(-c2cnc3cc(OC)c(S(=O)(=O)C(C)(C)C)cn23)cc(-n2cccn2)c1 [Example 81, N-(3-(6-(tert-butylsulfonyl)-7-methoxyimidazo[1,2-a]pyridin-3-yl)-5-(1H-pyrazol-1-yl)phenyl)propane-1-sulfonamide] | 1 to 2.5 | < 30 | > 20 | 250 to 1000
11 | COc1cc2ncc(-c3cnc4c(c3)NCCO4)n2cc1S(=O)(=O)C(C)(C)C [Example 82, 7-(6-(tert-butylsulfonyl)-7-methoxyimidazo[1,2-a]pyridin-3-yl)-2,3-dihydro-1H-pyrido[2,3-b][1,4]oxazine] | > 20 | < 30 | > 20 | > 1000
